ChEMBL document CHEMBL1201862, “PubChem BioAssay data set” (2004)
Activity calls are given as the source filed them.

Assays:
[1] = molecular target: Beta-2 adrenergic receptor (Homo sapiens, UniProt P07550); assay: ADRB2 activation measured by internalization – cell-based, FAP fluorogen, flow cytometry, cherry pick 1, dose response (AID 588763); assay type: functional
[2] = mammalian cell viability loss – Alamar Blue, dry powder, cytotoxicity control for antifungal single agent project, dose response (AID 602188); assay type: functional, cell-based
[3] = bead-based luminescence quenchers, dual-tagged ARNT – biochemical, AlphaScreen, cherry-pick, artefact control for ARNT-TACC3 interaction inhibitor project, dose response (AID 651705); assay type: functional;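 also: AlphaScreen bead proximity signal that flags compounds interfering with the detection technology; potency reflects signal decrease which marks the compound as an assay artifact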
[4] = tested on: Streptococcus sp. 'group A'; assay: Streptococcus pyogenes SK(-)GAS viability under kanamycin – luminescence, BacTiterGlo, confirmation, counter-screen for streptokinase expression inhibitor project, dose response (AID 1900); assay type: functional, organism-based
[5] = tested on: Streptococcus; assay: GAS UMAA2166 growth inhibition – luminescence, BacTiterGlo, counter-screen for streptokinase expression inhibitor project, dose response (AID 1915); assay type: functional, organism-based;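 also: potency for reduction of bacterial viability or growth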
[6] = molecular target: T1, Streptokinase A (Streptococcus pyogenes serotype M1, UniProt P10520); assay: viability-normalized secreted streptokinase activity reduction – plasminogen activation absorbance, OD405, dose response (AID 1914); assay type: functional, Streptococcus pyogenes M1 GAS;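 also: secreted streptokinase activity via plasminogen activation per viability signal from cell pellet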
T1 sequence (P10520 whole entry): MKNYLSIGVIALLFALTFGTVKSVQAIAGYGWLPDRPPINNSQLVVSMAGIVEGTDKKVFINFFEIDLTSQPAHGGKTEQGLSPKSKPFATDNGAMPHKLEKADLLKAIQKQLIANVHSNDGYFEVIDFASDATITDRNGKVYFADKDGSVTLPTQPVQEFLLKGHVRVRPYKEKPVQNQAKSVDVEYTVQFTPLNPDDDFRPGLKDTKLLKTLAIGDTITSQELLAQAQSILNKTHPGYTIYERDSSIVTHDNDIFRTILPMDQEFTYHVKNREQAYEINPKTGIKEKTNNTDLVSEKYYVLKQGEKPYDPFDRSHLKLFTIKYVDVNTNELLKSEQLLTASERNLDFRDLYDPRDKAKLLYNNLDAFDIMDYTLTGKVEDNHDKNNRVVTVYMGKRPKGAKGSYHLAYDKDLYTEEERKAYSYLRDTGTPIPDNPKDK

[7] = molecular target: DNA (cytosine-5)-methyltransferase 1 (Homo sapiens, UniProt P26358); assay: inhibition of DNA methylation by DNMT1 – biochemical, fluorescent molecular beacon, confirmation (AID 602386); assay type: functional
Sequence of DNA (cytosine-5)-methyltransferase 1 (P26358 whole entry): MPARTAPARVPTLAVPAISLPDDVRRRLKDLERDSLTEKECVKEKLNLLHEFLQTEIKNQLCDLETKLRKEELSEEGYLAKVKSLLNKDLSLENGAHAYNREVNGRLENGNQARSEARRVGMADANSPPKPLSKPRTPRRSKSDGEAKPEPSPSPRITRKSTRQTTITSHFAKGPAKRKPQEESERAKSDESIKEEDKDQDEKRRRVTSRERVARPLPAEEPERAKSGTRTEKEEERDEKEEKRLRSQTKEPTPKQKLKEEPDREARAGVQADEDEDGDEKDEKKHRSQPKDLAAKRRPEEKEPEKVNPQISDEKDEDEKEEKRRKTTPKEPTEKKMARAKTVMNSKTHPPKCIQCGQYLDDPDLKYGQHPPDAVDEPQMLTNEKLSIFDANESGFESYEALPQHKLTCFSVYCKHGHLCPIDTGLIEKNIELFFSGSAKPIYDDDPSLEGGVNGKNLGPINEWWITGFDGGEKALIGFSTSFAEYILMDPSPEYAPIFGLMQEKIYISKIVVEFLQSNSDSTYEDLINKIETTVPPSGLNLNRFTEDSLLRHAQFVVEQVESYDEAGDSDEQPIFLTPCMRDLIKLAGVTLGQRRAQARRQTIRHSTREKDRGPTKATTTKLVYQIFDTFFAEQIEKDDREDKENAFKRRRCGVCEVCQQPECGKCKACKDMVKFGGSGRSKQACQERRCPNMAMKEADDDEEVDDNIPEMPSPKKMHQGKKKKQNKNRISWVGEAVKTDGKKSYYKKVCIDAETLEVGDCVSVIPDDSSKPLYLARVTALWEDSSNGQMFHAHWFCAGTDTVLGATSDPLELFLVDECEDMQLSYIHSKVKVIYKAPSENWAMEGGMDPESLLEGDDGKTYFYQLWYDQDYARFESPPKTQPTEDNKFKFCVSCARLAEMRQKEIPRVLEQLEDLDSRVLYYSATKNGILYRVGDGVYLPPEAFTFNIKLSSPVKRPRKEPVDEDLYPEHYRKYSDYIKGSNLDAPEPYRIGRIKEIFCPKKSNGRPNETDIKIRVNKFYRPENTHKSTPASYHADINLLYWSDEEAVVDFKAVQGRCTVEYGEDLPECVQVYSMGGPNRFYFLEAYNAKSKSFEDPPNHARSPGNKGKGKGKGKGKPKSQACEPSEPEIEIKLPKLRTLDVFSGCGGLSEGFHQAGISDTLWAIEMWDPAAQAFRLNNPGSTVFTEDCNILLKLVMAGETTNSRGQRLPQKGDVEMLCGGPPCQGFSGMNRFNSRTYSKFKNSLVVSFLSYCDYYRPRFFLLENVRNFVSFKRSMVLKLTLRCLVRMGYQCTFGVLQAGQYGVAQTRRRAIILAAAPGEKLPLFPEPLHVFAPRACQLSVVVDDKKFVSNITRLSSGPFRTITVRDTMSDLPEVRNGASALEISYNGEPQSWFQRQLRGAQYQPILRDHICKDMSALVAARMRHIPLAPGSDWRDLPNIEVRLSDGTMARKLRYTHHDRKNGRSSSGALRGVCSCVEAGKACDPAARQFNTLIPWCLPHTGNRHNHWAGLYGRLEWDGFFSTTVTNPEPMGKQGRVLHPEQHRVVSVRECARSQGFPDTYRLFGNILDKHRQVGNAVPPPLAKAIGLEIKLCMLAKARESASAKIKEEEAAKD

[8] = molecular target: Trypsin (Sus scrofa, UniProt P00761); assay: trypsin protease activity blockade – biochemical, quenched peptide fluorescence, cherry-pick, selectivity assay for Rce1 protease inhibitor project, dose response (AID 488789)
Sequence of Trypsin (P00761 whole entry): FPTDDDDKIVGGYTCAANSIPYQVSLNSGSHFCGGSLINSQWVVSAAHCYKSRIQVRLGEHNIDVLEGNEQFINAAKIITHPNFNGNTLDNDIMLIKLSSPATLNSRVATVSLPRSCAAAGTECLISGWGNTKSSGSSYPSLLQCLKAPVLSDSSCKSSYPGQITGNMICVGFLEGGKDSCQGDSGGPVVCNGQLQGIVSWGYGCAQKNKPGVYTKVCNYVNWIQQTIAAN

[9] = molecular target: T2, CAAX prenyl protease 2 (Saccharomyces cerevisiae S288c, UniProt Q03530); assay type: biochemical
T2 sequence (Q03530 whole entry): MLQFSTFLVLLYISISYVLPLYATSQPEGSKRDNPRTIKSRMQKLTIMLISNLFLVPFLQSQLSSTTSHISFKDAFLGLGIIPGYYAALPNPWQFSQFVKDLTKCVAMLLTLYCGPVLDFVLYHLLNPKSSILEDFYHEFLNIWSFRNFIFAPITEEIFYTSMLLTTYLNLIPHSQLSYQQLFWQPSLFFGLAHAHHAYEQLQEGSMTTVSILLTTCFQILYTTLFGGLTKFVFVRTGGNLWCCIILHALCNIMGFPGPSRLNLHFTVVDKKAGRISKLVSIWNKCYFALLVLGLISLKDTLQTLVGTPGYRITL

[10] = molecular target: T3, CAAX prenyl protease 2 (Homo sapiens, UniProt Q9Y256); assay: inhibition of Ras-converting CAAX protease Rce1 – biochemical, yeast membranes, quenched-peptide fluorescence, cherry-pick, dose response (AID 588849)
T3 sequence (Q9Y256 whole entry): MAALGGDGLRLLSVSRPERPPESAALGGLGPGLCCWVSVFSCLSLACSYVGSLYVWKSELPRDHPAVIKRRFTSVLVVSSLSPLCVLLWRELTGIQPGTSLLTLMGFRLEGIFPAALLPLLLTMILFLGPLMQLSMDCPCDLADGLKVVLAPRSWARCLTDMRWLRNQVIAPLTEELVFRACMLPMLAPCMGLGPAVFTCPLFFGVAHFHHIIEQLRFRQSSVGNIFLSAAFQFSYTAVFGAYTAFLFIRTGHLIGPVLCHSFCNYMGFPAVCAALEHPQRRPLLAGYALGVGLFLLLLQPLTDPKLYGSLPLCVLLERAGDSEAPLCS

[11] = molecular target: T4, Sentrin-specific protease 7 (Homo sapiens, UniProt Q9BQF6); assay type: functional;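 also: Luminescence-based dose-response confirmation of ultra-high-throughput screening hits, measuring inhibition of SENP7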
T4 sequence (Q9BQF6 whole entry): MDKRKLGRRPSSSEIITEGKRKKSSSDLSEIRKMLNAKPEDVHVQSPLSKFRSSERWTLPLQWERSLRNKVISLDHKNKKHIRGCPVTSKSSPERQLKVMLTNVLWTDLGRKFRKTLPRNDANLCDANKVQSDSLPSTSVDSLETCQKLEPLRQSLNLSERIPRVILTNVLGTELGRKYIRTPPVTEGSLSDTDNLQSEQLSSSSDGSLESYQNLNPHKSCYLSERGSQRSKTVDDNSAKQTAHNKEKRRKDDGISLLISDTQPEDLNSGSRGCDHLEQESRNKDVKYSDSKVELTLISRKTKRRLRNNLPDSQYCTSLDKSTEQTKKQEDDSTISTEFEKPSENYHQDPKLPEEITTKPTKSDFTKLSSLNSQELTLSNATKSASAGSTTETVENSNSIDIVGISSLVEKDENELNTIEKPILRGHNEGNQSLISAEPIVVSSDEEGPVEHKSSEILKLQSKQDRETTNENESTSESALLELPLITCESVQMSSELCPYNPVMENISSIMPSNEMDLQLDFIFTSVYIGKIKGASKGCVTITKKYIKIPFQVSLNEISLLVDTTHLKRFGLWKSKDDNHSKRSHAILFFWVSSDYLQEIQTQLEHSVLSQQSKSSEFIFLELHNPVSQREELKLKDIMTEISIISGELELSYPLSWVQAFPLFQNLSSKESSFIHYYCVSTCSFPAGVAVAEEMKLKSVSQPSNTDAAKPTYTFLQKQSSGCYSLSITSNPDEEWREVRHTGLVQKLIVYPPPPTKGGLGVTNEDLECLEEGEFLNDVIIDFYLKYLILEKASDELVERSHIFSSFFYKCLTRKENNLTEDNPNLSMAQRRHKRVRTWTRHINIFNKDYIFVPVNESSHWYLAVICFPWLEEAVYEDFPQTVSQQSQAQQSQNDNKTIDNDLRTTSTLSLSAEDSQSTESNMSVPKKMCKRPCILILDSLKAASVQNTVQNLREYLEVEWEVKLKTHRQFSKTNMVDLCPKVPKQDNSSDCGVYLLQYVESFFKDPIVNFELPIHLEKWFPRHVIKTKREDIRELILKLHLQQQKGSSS

[12] = molecular target: Mitochondrial peptide methionine sulfoxide reductase (Bos taurus, UniProt P54149); assay: Absorbance-based biochemical high throughput dose response assay for activators of Methionine sulfoxide reductase A (MsrA).; assay type: functional
Sequence of Mitochondrial peptide methionine sulfoxide reductase (P54149 whole entry): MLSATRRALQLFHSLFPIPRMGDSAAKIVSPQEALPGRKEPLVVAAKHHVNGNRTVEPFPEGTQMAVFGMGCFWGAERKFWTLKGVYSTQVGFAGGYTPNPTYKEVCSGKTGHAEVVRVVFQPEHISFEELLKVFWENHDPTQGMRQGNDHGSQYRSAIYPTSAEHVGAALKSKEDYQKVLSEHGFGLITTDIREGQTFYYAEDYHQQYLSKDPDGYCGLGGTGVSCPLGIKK

[13] = molecular target: T5, Caspase-3 (Homo sapiens, UniProt P42574); assay type: functional;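 also: Dose-response selectivity test against caspase-3 for candidate inhibitors of sentrin-specific proteases (SENPs)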
T5 sequence (P42574 whole entry): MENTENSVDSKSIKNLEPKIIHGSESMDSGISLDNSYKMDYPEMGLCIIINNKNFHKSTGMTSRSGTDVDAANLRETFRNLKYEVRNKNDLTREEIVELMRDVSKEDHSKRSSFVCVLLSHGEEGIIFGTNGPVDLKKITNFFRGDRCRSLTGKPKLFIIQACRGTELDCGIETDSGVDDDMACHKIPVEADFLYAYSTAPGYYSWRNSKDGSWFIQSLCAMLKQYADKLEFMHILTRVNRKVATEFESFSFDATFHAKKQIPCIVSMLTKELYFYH

[14] = molecular target: T6, Sentrin-specific protease 8 (Homo sapiens, UniProt Q96LD8); assay type: functional;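 also: luminescence read-out of SENP8 inhibition, dose-response confirmation following an ultra-high-throughput screen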
T6 sequence (Q96LD8 whole entry): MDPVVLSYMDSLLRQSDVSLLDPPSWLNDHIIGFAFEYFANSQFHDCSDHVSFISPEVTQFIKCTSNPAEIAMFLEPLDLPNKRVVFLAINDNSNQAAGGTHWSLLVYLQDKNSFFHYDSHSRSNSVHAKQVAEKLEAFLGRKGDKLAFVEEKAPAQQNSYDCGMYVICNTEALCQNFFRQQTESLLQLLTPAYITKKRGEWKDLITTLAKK

[15] = molecular target: T7, Sentrin-specific protease 6 (Homo sapiens, UniProt Q9GZR1); assay type: functional;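 also: Luminescence-based dose-response confirmatory assay of SENP6 inhibition, following up an ultra-high-throughput screen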
T7 sequence (Q9GZR1 whole entry): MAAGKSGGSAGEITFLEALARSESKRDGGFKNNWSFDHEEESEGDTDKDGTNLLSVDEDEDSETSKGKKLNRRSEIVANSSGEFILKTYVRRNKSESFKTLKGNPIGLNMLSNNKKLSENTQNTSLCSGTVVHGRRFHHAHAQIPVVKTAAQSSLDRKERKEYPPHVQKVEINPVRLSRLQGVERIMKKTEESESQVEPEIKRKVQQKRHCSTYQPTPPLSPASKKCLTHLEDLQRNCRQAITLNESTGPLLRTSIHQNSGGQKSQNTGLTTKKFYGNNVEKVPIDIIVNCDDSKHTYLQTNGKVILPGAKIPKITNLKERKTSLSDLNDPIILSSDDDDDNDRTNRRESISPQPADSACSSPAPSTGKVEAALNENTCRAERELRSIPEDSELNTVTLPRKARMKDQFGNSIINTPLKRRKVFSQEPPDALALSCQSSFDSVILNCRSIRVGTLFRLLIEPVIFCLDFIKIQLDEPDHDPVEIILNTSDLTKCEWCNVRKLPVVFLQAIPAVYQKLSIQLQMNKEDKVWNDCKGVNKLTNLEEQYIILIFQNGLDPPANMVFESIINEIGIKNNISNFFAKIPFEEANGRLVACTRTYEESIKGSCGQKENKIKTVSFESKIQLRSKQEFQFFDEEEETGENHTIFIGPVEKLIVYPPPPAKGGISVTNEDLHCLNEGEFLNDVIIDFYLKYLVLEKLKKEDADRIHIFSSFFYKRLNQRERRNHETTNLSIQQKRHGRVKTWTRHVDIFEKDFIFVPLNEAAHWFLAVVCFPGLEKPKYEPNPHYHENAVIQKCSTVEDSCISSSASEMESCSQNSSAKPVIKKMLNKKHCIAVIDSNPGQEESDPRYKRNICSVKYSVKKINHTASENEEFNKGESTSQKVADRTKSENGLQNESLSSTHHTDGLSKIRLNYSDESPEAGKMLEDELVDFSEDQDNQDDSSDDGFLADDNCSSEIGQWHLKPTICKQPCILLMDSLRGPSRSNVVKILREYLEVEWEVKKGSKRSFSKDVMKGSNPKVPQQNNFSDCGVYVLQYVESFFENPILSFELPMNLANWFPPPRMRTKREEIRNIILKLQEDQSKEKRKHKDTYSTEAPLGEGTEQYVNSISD

[16] = molecular target: Melanin-concentrating hormone receptor 1 (Homo sapiens, UniProt Q99705); assay: Late-stage fluorescence-based counterscreen for antagonists of the G-protein coupled receptor 7 (GPR7): cell-based dose response assay to identify antagonists of the melanin-concentrating hormone receptor 1 (MCHR1) Set 6.; assay type: functional
Sequence of Melanin-concentrating hormone receptor 1 (Q99705 whole entry): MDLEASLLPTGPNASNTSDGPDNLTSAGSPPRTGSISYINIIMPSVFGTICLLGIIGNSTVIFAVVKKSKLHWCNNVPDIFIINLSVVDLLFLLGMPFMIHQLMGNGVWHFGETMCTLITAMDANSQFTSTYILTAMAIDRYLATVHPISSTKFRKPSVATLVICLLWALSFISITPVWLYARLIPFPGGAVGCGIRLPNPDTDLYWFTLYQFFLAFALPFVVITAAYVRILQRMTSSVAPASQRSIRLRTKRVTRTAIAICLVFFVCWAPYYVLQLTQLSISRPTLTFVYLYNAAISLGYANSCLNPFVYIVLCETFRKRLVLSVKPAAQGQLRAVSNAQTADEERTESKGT

[17] = molecular target: T8, Neuropeptides B/W receptor type 1 (Homo sapiens, UniProt P48145); assay: human NPBW1 receptor blockade, IC50 – cell-based, fluorescence, dose response, set 6, late-stage follow-up (AID 588583); assay type: functional
T8 sequence (P48145 whole entry): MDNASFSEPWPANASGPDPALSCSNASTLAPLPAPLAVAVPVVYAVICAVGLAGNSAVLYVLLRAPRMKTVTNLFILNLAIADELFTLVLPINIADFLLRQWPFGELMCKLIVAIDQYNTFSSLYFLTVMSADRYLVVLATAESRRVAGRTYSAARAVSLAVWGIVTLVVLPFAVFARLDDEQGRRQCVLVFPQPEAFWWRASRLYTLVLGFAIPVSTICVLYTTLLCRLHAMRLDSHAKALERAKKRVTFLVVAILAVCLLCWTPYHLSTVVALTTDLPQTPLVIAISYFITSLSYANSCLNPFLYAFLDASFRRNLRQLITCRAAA

[18] = molecular target: Adenosylmethionine-8-amino-7-oxononanoate aminotransferase (Mycobacterium tuberculosis, UniProt P9WQ81); assay: Mycobacterium tuberculosis BioA enzyme inhibitor Measured in Biochemical System Using Plate Reader - 2163-02_Inhibitor_Dose_CherryPick_Activity.; assay type: functional, Mycobacterium tuberculosis UT205
Sequence of Adenosylmethionine-8-amino-7-oxononanoate aminotransferase (P9WQ81 whole entry): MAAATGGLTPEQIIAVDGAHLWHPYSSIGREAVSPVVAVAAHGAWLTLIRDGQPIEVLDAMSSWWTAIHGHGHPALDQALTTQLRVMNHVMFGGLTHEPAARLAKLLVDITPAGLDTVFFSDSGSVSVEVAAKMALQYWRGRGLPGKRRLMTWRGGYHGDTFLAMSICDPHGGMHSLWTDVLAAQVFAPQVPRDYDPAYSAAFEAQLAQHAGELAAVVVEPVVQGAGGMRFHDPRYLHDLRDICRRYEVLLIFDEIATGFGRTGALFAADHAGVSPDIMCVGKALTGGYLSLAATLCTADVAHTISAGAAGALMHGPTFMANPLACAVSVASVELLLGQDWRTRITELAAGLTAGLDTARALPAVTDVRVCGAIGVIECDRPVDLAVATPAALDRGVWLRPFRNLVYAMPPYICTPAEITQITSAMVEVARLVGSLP

[19] = molecular target: DNA dC->dU-editing enzyme APOBEC-3A (Homo sapiens, UniProt P31941); assay: Dose Response confirmation of small molecule APOBEC3A DNA Deaminase Inhibitors via a fluorescence-based single-stranded DNA deaminase assay. [Related pubchem assays (depositor defined):AID493011, AID493024]; assay type: functional
Sequence of DNA dC->dU-editing enzyme APOBEC-3A (P31941 whole entry): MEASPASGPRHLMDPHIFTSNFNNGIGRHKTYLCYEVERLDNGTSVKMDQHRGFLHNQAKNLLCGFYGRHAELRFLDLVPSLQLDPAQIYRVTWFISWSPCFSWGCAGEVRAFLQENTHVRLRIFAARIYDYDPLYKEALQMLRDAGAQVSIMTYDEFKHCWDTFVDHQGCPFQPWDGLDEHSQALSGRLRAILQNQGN

[20] = molecular target: DNA dC->dU-editing enzyme APOBEC-3G (Homo sapiens, UniProt Q9HC16); assay type: functional;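 also: Dose-response counterscreen measuring inhibition of APOBEC3G DNA deaminase activity, run while confirming APOBEC3A inhibitors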
Sequence of DNA dC->dU-editing enzyme APOBEC-3G (Q9HC16 whole entry): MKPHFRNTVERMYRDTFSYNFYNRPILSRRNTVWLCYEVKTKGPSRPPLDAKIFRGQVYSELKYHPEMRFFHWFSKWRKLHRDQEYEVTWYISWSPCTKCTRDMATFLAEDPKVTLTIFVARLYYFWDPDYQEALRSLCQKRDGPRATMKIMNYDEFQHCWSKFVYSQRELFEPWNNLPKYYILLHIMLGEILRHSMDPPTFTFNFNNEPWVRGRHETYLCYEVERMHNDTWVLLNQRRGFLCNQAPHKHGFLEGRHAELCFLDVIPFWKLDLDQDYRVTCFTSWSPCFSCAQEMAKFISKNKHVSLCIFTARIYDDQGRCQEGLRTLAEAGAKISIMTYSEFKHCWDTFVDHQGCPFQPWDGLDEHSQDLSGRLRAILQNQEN

Sequence of Beta-2 adrenergic receptor (P07550 whole entry): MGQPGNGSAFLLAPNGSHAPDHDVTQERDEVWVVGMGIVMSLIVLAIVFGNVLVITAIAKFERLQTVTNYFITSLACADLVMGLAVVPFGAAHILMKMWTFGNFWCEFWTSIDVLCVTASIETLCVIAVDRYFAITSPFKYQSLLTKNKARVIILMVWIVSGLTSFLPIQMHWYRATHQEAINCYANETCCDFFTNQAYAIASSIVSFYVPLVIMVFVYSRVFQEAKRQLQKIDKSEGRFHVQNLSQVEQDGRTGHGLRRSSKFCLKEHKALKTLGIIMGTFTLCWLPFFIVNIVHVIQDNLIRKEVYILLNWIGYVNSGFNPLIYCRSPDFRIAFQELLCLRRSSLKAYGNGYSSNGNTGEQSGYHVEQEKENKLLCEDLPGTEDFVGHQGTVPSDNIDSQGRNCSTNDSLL

## COC(=O)c1cc([N+](=O)[O-])c(-n2cncn2)c([N+](=O)[O-])c1
[1]
  EC50: 19 µM (inactive)

## Cc1ccc(C(=O)Nc2nc(-c3ccccn3)cs2)cc1
[2]
  AC50: 9.7 µM (active)

## Oc1c(/C=N/CCCn2ccnc2)c(-c2ccccc2)nn1-c1nc2ccccc2s1
[3]
  AC50: 99.5 µM (active)

## O=C(O)C(c1ccccc1)N1C(=O)/C(=C\c2ccc(-c3ccc(Br)cc3)o2)SC1=S (stereo unspecified)
[4]
  EC50: 1.81 µM (active)
[5]
  EC50: 2.51 µM (active)
[6]
  EC50: 1.55 µM (active)
[7]
  IC50: 4.08 µM (active)

## NC(=O)N1N=C2/C(=C/c3ccccc3)CCCC2C1c1ccccc1 (stereo unspecified)
[8]
  AC50: 10.8 µM (active)
[9]
  AC50: 9.14 µM (active)
[10]
  AC50: 12.1 µM (active)

## O=C(COC(=O)c1ccc([N+](=O)[O-])s1)NCc1ccc(F)cc1
[11]
  IC50: 6.18 µM (active)
[12]
  EC50: 27.2 µM (inactive)
[13]
  IC50: 9.32 µM (active)
[14]
  IC50: 3.72 µM (active)
[15]
  IC50: 3.68 µM (active)

## Cc1ccc(C(C#N)c2c(Br)cnn(Cc3cccc4ccccc34)c2=O)cc1 (stereo unspecified)
[16]
  IC50: 0.219 µM (active)
[17]
  IC50: 0.219 µM (active)

## COc1ccc(C(C#N)c2c(Br)cnn(Cc3cccc4ccccc34)c2=O)cc1 (stereo unspecified)
[16]
  IC50: 0.131 µM (active)
[17]
  IC50: 0.131 µM (active)

## CCOc1ccc(C(=O)Nc2cc3c(cc2N2CCCC2)n(CC)c(=O)n3CC)cc1OCC
[18]
  AC50: 6.03 µM (active)

## CC(C)OC(=O)c1c(N)n(CCCN2CCOCC2)c2nc3ccccc3nc12
[8]
  AC50: 6.98 µM (active)
[9]
  AC50: 11.9 µM (active)
[10]
  AC50: 4.27 µM (active)

## CCn1c(SCC(=O)N2CCCC2)nnc1-c1ccc(N)cc1
[19]
  IC50: 2.31 µM (active)
[1]
  EC50: 2.07 µM (active)
[20]
  IC50: 2.75 µM (active)
